From US20260083698A1, “Synergistic Stimulation of Mucociliary Clearance to Treat Mucus Obstruction in Cystic Fibrosis and Other Muco-Obstructive Disorders” (The Board of Trustees of the Leland Stanford Junior …, priority 2022, published 2026)

Columns and labels:
[1] = system: piglet or ferret tracheal rings; assay: Airway narrowing: lumen area of thin sliced tracheal rings, carbachol; design: species or system pig; ferret; conditions: 0.3 mM carbachol alone
Protocol: FIG. 2. Elevating cAMP by adenylate cyclase activation inhibited muscle tension and airway narrowing to carbachol. (A, B) To measure muscle tension, one end of an isolated WT ferret trachealis muscle bundle was secured in a Sylgard-lined Petri dish filled with KRB solution and the other end was attached by 26-gauge wire to a previously calibrated strain gauge. […] (red closed circles). Averaged responses at 10 min intervals are shown for: (C) WT piglet tracheas (n=3-7) with forskolin. […] (F). CF ferrets (n=2, one CFTRΔF/ΔF and one CFTRΔF/G551D). […] Used alone they have opposite effects: Ca^2+-elevating agonists contract muscles whereas cAMP-elevating agonists relax them. For therapeutic use, the potential for producing unwanted bronchoconstriction with the combined agonists is a safety concern. […] Tension of ferret trachealis muscle bundles was measured to increasing carbachol concentrations±[…] forskolin. […] Importantly, the protective effect was also observed in CF ferrets (FIG. 2F). Airway smooth muscle contraction measurement. Two methods were used to measure tracheal smooth muscle contraction. One is designed to measure airway narrowing using thin sliced tracheal rings. Piglet or ferret tracheal ring preparations of ˜2 mm were submerged and securely pinned on a Sylgard-lined Petri dish filled with KRB solution at 37° C. and pH 7.4. […] The other method is using a force transducer. […]

ferret tracheal mucosa = assay: Short circuit current (Isc), Ussing chamber, ferret; conditions: WT ferrets; 30 min single agonist then 30 min combined
From the text: FIG. 4. Combined agonists inhibit sodium absorption and stimulate anion secretion by surface epithelia. (A) Cartoon of two electrogenic, ion transport pathways across airway apical epithelium: anion secretion increases surface fluid, Na+ absorption decreases surface fluid. The two pathways have opposite effects on fluid depth, but additive effects on short circuit current (Isc) because of their opposite valence and transport directions. (B) Raw trace of Isc across pig tracheal epithelium using Chart 4 software. After reaching a stable, unstimulated Isc (here, >2 h post-mounting), 10 μM forskolin, 0.3 μM carbachol, 10 μM benzamil, 20 μM benzopyrimido-pyrrolo-oxazinedione (BPO-27) and 200 μM niflumic acid were sequentially added at times shown. (C, D) Pig tracheal mucosa: averaged Δ Isc plots over time in response to (C) forskolin alone followed by forskolin+carbachol and (D) reversed order of agonist addition. (E & F) Ferret tracheal mucosa: averaged A Isc plots with same protocol as for pigs. Pig traces (C, D) are based on 10-12 experiments with tissues from 6 to 7 pigs. Ferret traces (E, F) are from 7 experiments with tissues from 5 ferrets. […]
Electrophysiology. […] Total tissue conductance was calculated by applying Ohm's law to the Isc deflection resulting from a 1 mV pulse across the tissues every 20 s during the experiment. […]

WT ferret tracheas = conditions: WT ferrets, obtained previously (16); cited from earlier work
CF ferret tracheas = assay: Mucociliary clearance velocity (MCCV) in ex vivo CF ferret tracheas; conditions: for MCCV: 10 μM forskolin, 0.3 μM carbachol, average of last 20 min of single drug period, 10 to 80 min after adding the combined agonists; for CF ferret MCCV response compared to WT ferrets: CF vs WT ferret (WT from ref 16)
Protocol: Synergistic increases of MCCV in CF ferrets and WT pigs. […] To determine if synergistic increases of MCCV could be produced in CF ferret tracheas, tracheas from 7 transgenic adult CF ferrets of mixed genotype were tested (see “Methods” section). […] SR, synergy response by the combined agonists: 19.95±4.12, (P=0.006 SR vs. Sum). Airway tissue procurement. CF ferret tissues. […] These ferrets were raised on the CFTR modulator VX770. […] Two […]/KO ferret tracheas were used for the tracheal, single gland mucus secretion rate assay. […] All isolated CF ferret tracheal trims (2-3 cm in length) were placed in DMEM culture medium immediately after euthanasia and shipped from the University of Iowa via overnight priority express. MCCV measurement. Details are in the previous reports (16,59,60). Briefly, each whole length ferret or piglet trachea, or a CF tracheal trim, was cut open along the mid-dorsal line and mounted mucosal side up onto a Sylgard elastomer platform. For pig experiments, tracheas from newborn piglets were used because tracheas from adult pigs that had been subjected to acute experiments, our source for submucosal gland experiment, had erratic MCC velocities due to epithelial damage secondary to intubation. […] Drugs were added by bath replacement with pre-warmed bath+drug(s).

[2] = system: WT ferret tracheal glands; assay: Optical measurement of glandular mucus secretion rate, WT ferret
From the text: Synergistic glandular mucus secretion in WT pigs, WT ferrets, and CF ferrets. Synergistic increases in MCCV rely partly on increased mucus secretion from submucosal glands. This hypothesis arises from evidence that combinations of [Ca^2+]i-elevating and [cAMP]i-elevating agonists produce synergistically elevated rates of mucus from submucosal glands of humans (22), pigs (24), and ferrets (21). However, in those experiments different specific concentrations of agonists were used. To determine if the same protocols used here produced synergistic increases in secretion from submucosal glands, mucus secretion rates of individual tracheal glands in WT pigs and ferrets and in CF ferrets were measured via time-lapse optical imaging (28) while stimulating them with the same concentrations of agonists and durations of exposure used for MCCV studies. All secretion rates are reported as nanoliters/min/gland. WT Ferrets gave similar results (FIG. 3D-F). […] Data for individual WT control ferrets is shown in FIG. 3E for forskolin first and in FIG. 3F for carbachol first. Optical measurement of glandular mucus secretion rate. Details are in the previous report (28). […] Stored images were analyzed by direct measurement or with ImageJ software (V. 1.50i, https://imagej.nih.gov/ij/, NIH, MD/USA).

SMILES	sustained reduction of lumen area [1]	ΔIsc, summary plots (ferret tracheal mucosa)	MCCV (WT ferret tracheas) [mm/min]	MCCV (CF ferret tracheas; CF ferret tracheas) [mm/min]	effect on MCCV (CF ferret tracheas; CF ferret tracheas, single agonist, 30 min)	CF ferret MCCV response compared to WT ferrets (CF ferret tracheas) [%]	averaged MCCV of T10-30 to 0.3 μM carbachol in ferret (E) relative to ferrets (A) and (C) (CF ferret tracheas; individual CF ferrets, FIG. 7)	gland mucus secretion rate [2] [nanoliters/min/gland]
C[N+](C)(C)CCOC(N)=O [carbachol]	20-40%	decreased directly or after a transient increase	8.24±0.82	3.29±2.08	only a small increase	~40	less than 5%	0.94±0.28
C=C[C@@]1(C)CC(=O)[C@]2(O)[C@@]3(C)[C@@H](O)CCC(C)(C)[C@@H]3[C@H](O)[C@H](OC(C)=O)[C@@]2(C)O1 [forskolin]				0.18±0.09		~0		0.26±0.07
